Experimental data from ChEMBL document CHEMBL3507680, “University of Dundee, Gates Library screen for HepG2 cell viability”.

Experiment: Human HepG2 cell viability assay in 384 well format
Assay type: toxicity, cell-based
Design: dose 125 nL, time 70.5 hour; cytotoxicity at 70.5 h: concentration not given beside the values
Settings: HepG2 cells, read-out: Inhibition

Row | Compound | cytotoxicity at 70.5 h [%]
1 | COc1ccc(C(=O)N2CC[C@](C)(O)[C@H](C)C2)cc1N1CCOCC1 | -8.2
2 | Cc1n[nH]c(C)c1CCC(=O)NCC1CCCN(C2CCCC2)C1 (centres undefined) | 30.3
3 | CCOc1cccc(C2CC(=O)NCc3nc(N4CCCC4)sc32)c1 (centres undefined) | -3
4 | COCc1cc(N(C)CCC(O)c2ccccc2)n2nccc2n1 (centres undefined) | -7.44
5 | COC[C@]1(O)CCN(Cc2cnc(N(C)C)nc2)CC1(C)C | -18.8
6 | Cc1ccccc1C(C(=O)NCCSC(C)C)N(C)C (centres undefined) | -9.38
7 | Cc1cc(NCCc2nnc(N)s2)nc(-c2ccccc2)n1 | -2.76
8 | c1cnc(N2CCC(c3nccn3CC3CC3)CC2)nc1 | -2.28
9 | Cn1cc(C2=CCN(CCC(=O)NCc3ccc(Cl)cc3)CC2)cn1 | -2.89
10 | CC(C)n1cc(-c2c(C#N)c(N)nc3c2COCC3)cn1 | 10.2
11 | Cc1ccc(C(=O)N2C[C@H]3CC[C@@H]2CN(S(=O)(=O)N(C)C)C3)c(O)c1 | 14.2
12 | CN1C[C@@H](n2cnc(-c3ccccc3)c2-c2ncc[nH]2)C[C@H]1C(=O)O | 5.36
13 | CN1N=C(C(=O)N2CCCC(CCc3cccc(F)c3)C2)CCC1=O (centres undefined) | -3.78
14 | COc1ccc(NC2CCCN(Cc3cnc(N(C)C)s3)C2)cc1OC (centres undefined) | -12
15 | Cc1ccc2nc(CN3CCCCC3CCN3CCOCC3)cn2c1 (centres undefined) | -10.8
16 | CC(c1ccccn1)N(C)Cc1ccc(CCC(C)(C)O)cc1 (centres undefined) | -1.13
17 | CSCC1CCN(C(=O)Cn2ncc(N3CCCCC3)cc2=O)CC1 | -16.3
18 | CC(C)CN1CC2(CCN(C(=O)c3cnccn3)CC2)CC1=O | -15
19 | CCc1cc(N(C)Cc2[nH]nc3c2CCC3)nc(N2CCOCC2)n1 | -15.5
20 | Cc1cccc(-n2cc(CN3CCN(C)[C@@H]4CS(=O)(=O)C[C@@H]43)cn2)c1 | -15.9
21 | O=C1CSc2ccccc2N1CC(=O)N1CCCCC1c1nccs1 (centres undefined) | -8.8
22 | OCc1csc(N2CCCC(COc3cccc(F)c3)C2)n1 (centres undefined) | -9.22
23 | Cn1ncc(N2CCOC(CCNC(=O)N3CCCCC3)C2)cc1=O (centres undefined) | -6.9

Row | Compound | cytotoxicity at 70.5 h [%]
24 | CN(CCCO)Cc1cc(Cl)ccc1OCC(O)CN1CCCCCC1 (centres undefined) | -7.24
25 | CCN(C)C(=O)c1ccc(N2CCC(Oc3cccc(F)c3)CC2)nc1 | -4.75
26 | Cc1ccc(OC2CCN(C(=O)C(C)Cn3cccn3)CC2)cc1 (centres undefined) | 0.0943
27 | COc1ccc(-n2nc(C)c(C(C)=O)c2C)cc1C(N)=O | 2.1
28 | Cc1cn(Cc2nc(CC(C)C)nn2-c2ccccn2)c(=O)[nH]c1=O | -1.31
29 | O=C(Nc1ccc(F)cc1)C1CNCCN1C(=O)CCc1cccnc1 (centres undefined) | -5.37
30 | Cn1ccnc1C1CCN(CCN2CCOCC2)CC1 | -8.74
31 | O=C(N1CCOCC(O)C1)C1(c2ccc(Cl)cc2)CCC1 (centres undefined) | 21.7
32 | CCC(C)N(Cc1cccnc1)C(=O)CCSC (centres undefined) | -8.8
33 | COC(=O)[C@@H](NC(=O)c1coc(COc2cccc(F)c2F)n1)C(C)C | -11.7
34 | CN(Cc1ccoc1)C(=O)C1CCN(C(=O)C2CCCC2)CC1 | 27.9
35 | CC(C)=CCCC1(C)CCC(=O)N(CCc2nc(N)cc(O)n2)C1 (centres undefined) | -6.54
36 | COc1ccc(C(=O)N2CCC3(CCC(=O)N(C(C)C)C3)CC2)cc1C | -6.63
37 | NC1CCN(C(=O)c2cnc(Cc3c(Cl)cccc3Cl)nc2O)C1 (centres undefined) | 13.3
38 | CC(=O)c1c(C)nn(CC(=O)N2Cc3cnc(CC(C)C)nc3C2)c1C | -8.3
39 | O=C1CCCc2cc(S(=O)(=O)NCc3ccccn3)ccc2N1 | -11
40 | CCCn1ncc(C(=O)NC2CCN(CC3CCCO3)CC2)c1C (centres undefined) | 25.6
41 | CNc1cc(-c2cccc(CN)c2)c2cc[nH]c2n1 | -13.9
42 | CCCc1cnc(C)nc1N1CCC(Cn2cc(CO)nn2)CC1 | -3.5
43 | O=C(NCc1ccccn1)C1CN(c2nc3ccccc3s2)CCN1 (centres undefined) | -8.77
44 | COc1coc(CN2CCCC(CCc3c(F)cccc3F)C2)cc1=O (centres undefined) | -2.32
45 | COc1ccc(Oc2nccc3occc23)cc1CN1CCCC1 | -6.39
46 | Cc1cc2nc(C(C)C)cc(N3CCSCC3)n2n1 | 16.2

Row | Compound | cytotoxicity at 70.5 h [%]
47 | COc1cccc(NC(=O)CN2CCN(S(C)(=O)=O)CC2)c1 | -8.85
48 | CC(C)CN1CCc2[nH]cnc2C12CCN(C(=O)c1cncn1C)CC2 | -5.88
49 | N#Cc1cccc(N2CCC3(CCC(=O)N(CCCO)C3)CC2)n1 | -9.82
50 | CC(C)NC(=O)[C@@H]1C[C@@H](N)CN1C(=O)c1cc2c([nH]c1=O)CCCC2 | -6.99
51 | CC(C)N1CCC[C@H]1C(=O)NCC1CCN(c2cnn(C)c(=O)c2)CC1 | -8.1
52 | CCOC(=O)c1c(NC(=O)C2CCN(C(C)=O)CC2)sc(C)c1CC | -6.22
53 | Cc1ccc2nc(C)cc(C(=O)NC(C)c3nnn[nH]3)c2c1 (centres undefined) | -0.653
54 | CCn1nc(C)c(NC(=O)CN(C)C(C)c2ccon2)c1C (centres undefined) | 3.79
55 | CN1CCN(Cc2ccc(-c3ccc4[nH]ccc4c3)nc2)CC1 | -15.3
56 | Cc1noc(C)c1CN(C)C(=O)c1n[nH]c(N)c1-c1ccccc1 | -5.4
57 | Cc1cnccc1-c1cc(NCCO)nc2[nH]ccc12 | 14.2
58 | CCNc1c(NC(=O)NC(C)C)c(=O)oc2ccccc12 | -8.94
59 | Cc1c[nH]c(CN(C)C(=O)c2ccc(CSc3nnc[nH]3)o2)n1 | -1.05
60 | CNS(=O)(=O)c1cc(C)c2[nH]c(=O)cc(C)c2c1 | -16.4
61 | Cc1ccc(CCN[C@@H]2c3ccccc3C3(CCNCC3)[C@H]2O)s1 | -2.07
62 | CN(C)C(=O)c1ccc2c(c1)N(C)C(CC(=O)NCc1ncc[nH]1)CO2 (centres undefined) | -5.15
63 | O=C(NCc1ccco1)c1ccc(N2CCOCC2)cc1 | 0.191
64 | Cc1ccc2[nH]c(C(=O)NCCCn3ccnn3)c(C)c2c1 | 22.6
65 | COCCN(Cc1cnn(C)c1)c1nc(C)nc2sccc12 | 4.75
66 | Cc1ccc(CS(=O)(=O)NCc2ccco2)cc1 | -4.19
67 | O=S(=O)(Cc1ccc(F)cc1)NCc1ccco1 | -2.47
68 | Cc1cc(=O)[nH]c(=O)n1-c1ccccc1Br | -2.81
69 | Cn1c(N2CCOCC2)nc2cc(C(=O)N[C@@H]3CC[C@@H](N)C3)ccc21 | -5.03

Row | Compound | cytotoxicity at 70.5 h [%]
70 | COc1ccc([C@@H]2C[C@H](NC(C)=O)C[C@H](Cc3ccccc3)O2)cn1 | -6.79
71 | CC(=O)Nc1ccc(Cl)c(C(=O)N(C)C(C)c2ccncn2)c1 (centres undefined) | -0.237
72 | CC(=O)NCCNc1nc(C2CCCC2)nc2c1cnn2C | -5.79
73 | O=C(NCCN1CCCCC1)c1cccc(Cl)c1Cl | -8.61
74 | CSCCC(=O)NCc1cc2n(n1)CCN(C(=O)N(C)C)C2 | -8.07
75 | O[C@]12CCNC[C@H]1CN(c1nccc3ccccc13)CC2 | 22.6
76 | O=C(c1scc2c1OCCO2)N1CCOC(Cc2ccc(F)cc2)C1 (centres undefined) | -0.136
77 | O=C(c1ccc(Br)o1)N1CCN(Cc2ccc(F)cc2)CC1 | 7.95
78 | CC(C)N1CCCn2nc(C(=O)NCCc3c[nH]cn3)cc2C1 | 19.8
79 | CN1CCCN(CC(=O)N2CCc3[nH]c(-c4ccccc4)nc3C2)CC1 | -1.3
80 | O=S(=O)(c1c(N2CCCC2)ccc2nonc12)N1CCCC1 | -1.28
81 | Cc1nc(NC(=O)C(C)N2CCN(c3ccccc3F)CC2)sc1C (centres undefined) | -2.47
82 | CCOC(=O)CC1CCCCN1C(=O)c1cc(C)oc1C (centres undefined) | 3.76
83 | COCc1cc(CNC(=O)c2cccc3c2OCC3)n[nH]1 | -5.24
84 | Cc1cccc2sc(NC(=O)CN3CCC(C)CC3)nc12 | -7.07
85 | Cc1cc(-c2nn3c(C)nnc3s2)n[nH]1 | 20
86 | Cc1cc(C(=O)NCCC(C)C)ccc1NS(C)(=O)=O | -11
87 | Cc1ccccc1N1CCCN(C(=O)c2nn(C)cc2Cl)CC1 | 27.7
88 | CC(=O)Nc1ncc(S(=O)(=O)N2CCCC(C)C2)s1 (centres undefined) | -3.6
89 | CC(=O)Nc1ncc(S(=O)(=O)N2CCOCC2)s1 | -1.73
90 | Cc1cc(C)n(CCCN(C)c2cc(N(C)C)ncn2)n1 | -7.08
91 | COCC(Nc1ncnc2sc(C)c(C)c12)c1ccnn1C (centres undefined) | -4.15
92 | Cc1cccc(OCCN2CCN(Cc3noc(C)n3)CC2)c1 | -2.75

Row | Compound | cytotoxicity at 70.5 h [%]
93 | Cc1nc(CN2CCN(CCOc3ccc(C(C)C)c(C)c3)CC2)no1 | 8.91
94 | Cc1nc(CC(=O)N2CCCC(n3ccnc3C(C)C)C2)cs1 (centres undefined) | -6.07
95 | CC(C)c1nccn1C1CCCN(C(=O)CCc2cnn(C)c2)C1 (centres undefined) | -10.7
96 | CC(C)c1nccn1C1CCCN(C(=O)CCNS(C)(=O)=O)C1 (centres undefined) | -6.32
97 | Cc1nn(C)c(Cl)c1C1CCCN1Cc1noc(C2CC2)n1 (centres undefined) | -9.55
98 | O=C(NCc1ccco1)N1CCN(Cc2ccc3c(c2)CCO3)CC1 | -6.39
99 | Cc1nccc(-c2cccc(NCC(=O)N3CCOC(C)C3)c2)n1 (centres undefined) | -3.45
100 | Cc1nccc(-c2cccc(NCC(=O)N3CCNC(=O)C3)c2)n1 | -5.62
101 | Cc1noc(NC(=O)c2ccccc2)n1 | -5.17
102 | Cc1nccc(-c2cccc(NCC(=O)NCC(=O)N3CCCC3)c2)n1 | -3.17
103 | Cc1ncsc1C(=O)NCCNc1ncccn1 | 13.7
104 | Cc1noc(C)c1CN(C)C(=O)c1ccc(C(N)=O)nc1 | -5.9
105 | COc1ccnc(N2CCN(C(=O)c3cccc(C#N)c3)CC2)n1 | -7.44
106 | CCc1nnc2n1CCN(C(=O)c1cc(C)n(-c3ccccc3)c1C)C2 | -4.27
107 | COc1ccc(CN(C)C(=O)NCc2c(C)cc(C)nc2OC)cc1 | -5.78
108 | Cc1nn(C)c(N(C)C)c1CNCc1ccc2c(c1)OCO2 | 29.5
109 | Cc1ccccc1C(C)NC(=O)CSCC#N (centres undefined) | 12.8
110 | CCc1nc(C(=O)N2CCN(CC)CC2)nn1-c1ccccc1Cl | 11.3
111 | CCc1nc(C(=O)N2CCN(C)CC2)nn1-c1ccccc1Cl | 16.1
112 | CCc1noc(C)c1C(=O)N1CCCCC1Cn1cc(C)cn1 (centres undefined) | 46.7
113 | CCOc1ccc2ccccc2c1CNCC1CCNCC1 | 9.2
114 | Cc1ccc(OCCCSC2=NCCN2)cc1 | -3.22
